The record followed here is ChEMBL document CHEMBL1201862, “PubChem BioAssay data set” (2004).

Holding throughout (assay): NCI tumour cell line growth inhibition, 48 h
Test [1] has as its system CAKI-1.
Test [2] relates to DU-145.
Test [3] has as its system HCC 2998.
Test [4] deals with HCT-116.
Test [5] deals with HL-60.
The subject of test [6] is HOP-62.
In test [7] the test system is MDA-MB-435.
Test [8] has as its system MOLT-4.
Test [9] relates to Malme-3M.
For test [10], the system named is NCI-H23.
Test [11] relates to NCI/ADR-RES.
Test [12] relates to RPMI-8226.
Test [13] deals with SF-268.
Test [14] concerns SF-539.
In test [15] the test system is SK-MEL-28.
In test [16] the test system is SK-MEL-2.
The subject of test [17] is SK-OV-3.
In test [18] the test system is SNB-75.
Test [19] concerns TK-10.
The test system of test [20] is U-251.

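Tested at 5 concentrations; 48 h exposure; 96-well plates; endpoints linearly interpolated, else capped at highest concentration. GI50 marks 50% less growth.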 The source made the active and inactive calls. Cut-off read from the data, not from the text of the source: active = GI50 up to about 1.1 µM and inactive = higher. Bounds are passed on as bounds.

Regarding `CC(C)NC(=O)OCc1c(COC(=O)NC(C)C)c(-c2cc[n+](COC(=O)C(C)(C)C)cc2)n2c1CCC2`, the GI50 was 60 µM (inactive) in test [1]; > 100 µM (inactive) in test [2]; > 100 µM (inactive) in test [3]; > 100 µM (inactive) in test [4]; > 100 µM (inactive) in [5]; > 100 µM (inactive) in test [6]. For the same molecule, the GI50 in test [7], in [8], in test [9], in test [10], in test [11] and in [12] was > 100 µM (inactive) throughout. Also, the GI50 in [13], in test [14], in test [15], in [16], in test [17] and in [18] was > 100 µM (inactive) throughout. The GI50 in test [19] and in test [20] was > 100 µM (inactive) throughout.
Regarding `CN1CCN(C2=C(Cl)C(=O)c3c(O)ccc(O)c3C2=O)CC1`, the GI50 is 0.546 µM (active) in [1]; 1.78 µM (inactive) in test [2]; 2.04 µM (inactive) in test [3]; 0.234 µM (active) in test [4]; 0.103 µM (active) in [5]; 1.92 µM (inactive) in [6]. Besides, the GI50 in test [7] was 0.214 µM (active); in test [8], 0.13 µM (active); in test [9], 0.196 µM (active); in [10], 0.61 µM (active); in [11], 0.632 µM (active); in test [12], 1.44 µM (inactive). Further, the GI50 in test [13] is 1.85 µM (inactive); in test [14], 0.959 µM (active); in [15] it was 0.995 µM (active); in test [16] it was 1.21 µM (inactive); in test [17] it was 5.62 µM (inactive); in test [18] it was 2.03 µM (inactive). For the same molecule, the GI50 in test [19] was 0.514 µM (active); in test [20], 1.72 µM (inactive).
As for `Oc1ccccc1CNCc1ccccc1O`, the GI50 in test [1] was > 100 µM (inactive); in [2] it was > 100 µM (inactive); in [3] it was 19.2 µM (inactive); in test [4], > 100 µM (inactive); in [5], > 100 µM (inactive); in test [6] it was > 100 µM (inactive). The GI50 in [7] was 54.3 µM (inactive); in test [8], 88.5 µM (inactive); in test [9] it was > 100 µM (inactive); in test [10] it was > 100 µM (inactive); in [11], > 100 µM (inactive); in test [12], 32.7 µM (inactive). For the same molecule, the GI50 is > 100 µM (inactive) in test [13]; 56.1 µM (inactive) in test [14]; > 100 µM (inactive) in [15]; > 100 µM (inactive) in test [16]; > 100 µM (inactive) in test [17]; > 100 µM (inactive) in [18]. For the same molecule, the GI50 in test [19] and in [20] was > 100 µM (inactive) throughout.
As for `O=C(O)CCSC(CC1(c2ccc(Cl)cc2)NC(=O)CCS1)c1ccccc1` (stereo not given), the GI50 was 16.9 µM (inactive) in test [1]; > 39.4 µM (inactive) in test [2]; 10 µM (inactive) in test [3]; 4.71 µM (inactive) in [4]; 3.44 µM (inactive) in test [5]; 21.2 µM (inactive) in test [6]. The GI50 in test [7] is 14.3 µM (inactive); in [8] it was 12.5 µM (inactive); in test [9], 22.9 µM (inactive); in test [10], 20.9 µM (inactive); in [11], 20.8 µM (inactive); in [12], 3.56 µM (inactive). In addition, the GI50 in test [13] is 18 µM (inactive); in test [14] it was 7.98 µM (inactive); in [15] it was 17.9 µM (inactive); in test [16], 18.7 µM (inactive); in test [17], 20.5 µM (inactive); in test [18], 17.1 µM (inactive). Also, the GI50 is 18.4 µM (inactive) in test [19] and 10.4 µM (inactive) in [20].
For the molecule `O=C(Nc1ccccc1)O/N=C(/CBr)c1ccccc1`, the GI50 in test [1] was 14.8 µM (inactive); in test [2], 19.3 µM (inactive); in [3] it was 18.5 µM (inactive); in test [4] it was 4.3 µM (inactive); in test [5] it was 4.66 µM (inactive); in [6] it was 24.3 µM (inactive). The GI50 in test [7] is 4.84 µM (inactive); in [8], 3.18 µM (inactive); in test [9], 13 µM (inactive); in test [10], 7.35 µM (inactive); in test [11], 17.9 µM (inactive); in [12], 16.3 µM (inactive). Besides, the GI50 in test [13] was 14.3 µM (inactive); in test [14], 7.11 µM (inactive); in test [15], 19.5 µM (inactive); in test [16], 13.9 µM (inactive); in [17] it was 29.2 µM (inactive); in test [18] it was 15.2 µM (inactive). The GI50 in [19] was 18.1 µM (inactive); in test [20] it was 14.5 µM (inactive).
Take `COc1ccc(/C=N/c2ccc(-c3nc4ccccc4s3)cc2)cc1OC`: the GI50 in test [1] was 31.3 µM (inactive); in test [2], 38.3 µM (inactive); in [3], 20.2 µM (inactive); in test [4], 29.1 µM (inactive); in test [5], 1.3 µM (inactive); in [6], 10.9 µM (inactive). Further, the GI50 in [7] was 33.3 µM (inactive); in test [8], 17.9 µM (inactive); in [9], 30 µM (inactive); in test [10], 27.1 µM (inactive); in test [11], 27.5 µM (inactive); in [12], 21.7 µM (inactive). Further, the GI50 in test [13] was 28 µM (inactive); in test [14], 34.8 µM (inactive); in test [15] it was 38 µM (inactive); in test [16], 22 µM (inactive); in test [17] it was 31 µM (inactive); in test [18], 25.7 µM (inactive). In addition, the results for the GI50 in [19] and in test [20] were 28.6 µM (inactive) and 30.3 µM (inactive), respectively.
Turning to `COc1cc(/C=C2\C[C@H]3[C@@H]4CCC5=CC(=O)CC[C@]5(C)[C@H]4CC[C@]3(C)C2=O)cc(OC)c1OC`, the GI50 in test [1] was 5.37 µM (inactive); in test [2] it was 19.5 µM (inactive); in test [3], 15 µM (inactive); in test [4], 3.85 µM (inactive); in [5], 3.39 µM (inactive); in test [6], 12.8 µM (inactive). Besides, the GI50 in test [7] is 3.36 µM (inactive); in [8], 2.13 µM (inactive); in test [9], 11.4 µM (inactive); in test [10], 6.4 µM (inactive); in [11] it was 3.86 µM (inactive); in test [12] it was 2.38 µM (inactive). Further, the GI50 in test [13] is 57.3 µM (inactive); in [14], 46.7 µM (inactive); in test [15], 15.9 µM (inactive); in [16] it was 7.19 µM (inactive); in test [17] it was 29.4 µM (inactive); in [18], 9.08 µM (inactive). Further, the GI50 in [19] was 19.8 µM (inactive); in test [20], 11.7 µM (inactive).
